Experimental data from PubChem BioAssay AID330 (DTP/NCI, 2004).
“And” between values parts separate entries of the source, which are not always exact repeats. Equal entries are not always repeated. Inconclusive results and toxic doses are left out. Rule for the calls: active = survival T/C of 150% or more; inactive = T/C below 125% in these data. Peptide text beside a SMILES is read from it. * marks the point of attachment. Boc = CC(C)(C)OC(=O)*; NHNH2 = NN*

System: P388 leukemia ip, CD2F1 mice, survival T/C
Experiment: NCI In Vivo Anticancer Drug Screen. Data for tumor model P388 Leukemia (intraperitoneal) in CD2F1 (CDF1) mice
Settings: endpoint: median survival time, higher = longer survival
In short: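 Mice carrying the transplanted tumor received test compound or vehicle. Survival was recorded in each group, and the value is the treated-group measurement divided by that of the vehicle-treated control group.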

[1] = dose: 50.0 mg/kg/injection, schedule: Q01DX009 (ip), vehicle: Klucel (hydroxypropylcellulose) (HPC)
[2] = dose: 100.0 mg/kg/injection, schedule: Q01DX009 (ip), vehicle: Klucel (hydroxypropylcellulose) (HPC)
[3] = dose: 200.0 mg/kg/injection, schedule: Q01DX009 (ip), vehicle: Klucel (hydroxypropylcellulose) (HPC)
[4] = dose: 12.5 mg/kg/injection, schedule: Q01DX009 (ip), vehicle: saline with Tween-80
[5] = dose: 25.0 mg/kg/injection, schedule: Q01DX009 (ip), vehicle: saline with Tween-80
[6] = dose: 50.0 mg/kg/injection, schedule: Q01DX009 (ip), vehicle: saline with Tween-80
[7] = dose: 50.0 mg/kg/injection, schedule: Q04DX003 (ip), vehicle: saline with Tween-80
[8] = dose: 100.0 mg/kg/injection, schedule: Q04DX003 (ip), vehicle: saline with Tween-80
[9] = dose: 400.0 mg/kg/injection, schedule: Q04DX003 (ip), vehicle: saline with Tween-80

Measured: T/C

O=[N+]([O-])C1C=Nc2ccccc2N=C1
inactive: [1] 105 % of control | [2] 97 % of control | [3] 97 % of control | dose: 400.0 mg/kg/injection, schedule: Q01DX009 (ip), vehicle: Klucel (hydroxypropylcellulose) (HPC) 96 % of control

COc1cc(C2c3cc4c(cc3OC(C)(N3CCCC3)C2C)OCO4)cc(OC)c1OC (stereo not drawn)
inactive: dose: 60.0 mg/kg/injection, schedule: Q01DX005 (ip), vehicle: Klucel (hydroxypropylcellulose) (HPC) 100 % of control | dose: 120.0 mg/kg/injection, schedule: Q01DX005 (ip), vehicle: Klucel (hydroxypropylcellulose) (HPC) 102 % of control | dose: 240.0 mg/kg/injection, schedule: Q01DX005 (ip), vehicle: Klucel (hydroxypropylcellulose) (HPC) 105 % of control

CC(=O)Nc1ccc(C(=O)CCl)c(Cl)c1
inactive: dose: 12.5 mg/kg/injection, schedule: Q01DX009 (ip), vehicle: Klucel (hydroxypropylcellulose) (HPC) 104 % of control | dose: 25.0 mg/kg/injection, schedule: Q01DX009 (ip), vehicle: Klucel (hydroxypropylcellulose) (HPC) 107 % of control

CCO/C=N/NC(=O)c1n[nH]c2ccccc12
inactive: dose: 50.0 mg/kg/injection, schedule: Q01DX005 (ip), vehicle: saline with Tween-80 106 % of control | dose: 100.0 mg/kg/injection, schedule: Q01DX005 (ip), vehicle: saline with Tween-80 100 % of control | dose: 200.0 mg/kg/injection, schedule: Q01DX005 (ip), vehicle: saline with Tween-80 106 % of control

S=c1ncn(C2CCCC2)c(=S)[nH]1
inactive: dose: 50.0 mg/kg/injection, schedule: Q01DX005 (ip), vehicle: Klucel (hydroxypropylcellulose) (HPC) 93 % of control | dose: 100.0 mg/kg/injection, schedule: Q01DX005 (ip), vehicle: Klucel (hydroxypropylcellulose) (HPC) 103 % of control | dose: 200.0 mg/kg/injection, schedule: Q01DX005 (ip), vehicle: Klucel (hydroxypropylcellulose) (HPC) 100 % of control

CSCCC(NC(=O)C(Cc1c[nH]c2ccccc12)NC(=O)OC(C)(C)C)C(=O)NN (stereo not drawn) (Boc-Trp-Met-NHNH2; configuration not given here)
inactive: [1] 104 % of control and 105 % of control | [2] 118 % of control | [3] 119 % of control

CC(CCc1ccc2c(c1)OCO2)NCC(O)c1ccc(O)c(C(N)=O)c1 (stereo not drawn)
inactive: [1] 93 % of control | [2] 94 % of control | [3] 100 % of control

COC(=O)C(Cc1ccccc1)NC(=O)C(C)NC(=O)c1ccc(OC)cc1 (stereo not drawn)
inactive: dose: 100.0 mg/kg/injection, schedule: Q01DX001 (ip), vehicle: saline with Tween-80 100 % of control | dose: 200.0 mg/kg/injection, schedule: Q01DX001 (ip), vehicle: saline with Tween-80 100 % of control | dose: 400.0 mg/kg/injection, schedule: Q01DX001 (ip), vehicle: saline with Tween-80 93 % of control

Cc1cc2nc(CC(=O)c3ccncc3)c(CC(=O)c3ccncc3)nc2cc1C
inactive: dose: 60.0 mg/kg/injection, schedule: Q01DX005 (ip), vehicle: saline with Tween-80 106 % of control | dose: 120.0 mg/kg/injection, schedule: Q01DX005 (ip), vehicle: saline with Tween-80 91 % of control | dose: 240.0 mg/kg/injection, schedule: Q01DX005 (ip), vehicle: saline with Tween-80 91 % of control

CCCC(CCC)=NNC(=S)SC
inactive: [4] 95 % of control | [5] 95 % of control | [6] 106 % of control and 95 % of control

CC(C)CC(=O)CC(=O)C(C)(C)C.CC(C)CC(=O)CC(=O)C(C)(C)C.CC(C)CC(=O)CC(=O)C(C)(C)C.CC(C)CC(=O)CC(=O)C(C)(C)C.[Ce]
inactive: dose: 50.0 mg/kg/injection, schedule: Q01DX009 (ip), vehicle: distilled water + alcohol 106 % of control | dose: 100.0 mg/kg/injection, schedule: Q01DX009 (ip), vehicle: distilled water + alcohol 103 % of control | dose: 200.0 mg/kg/injection, schedule: Q01DX009 (ip), vehicle: distilled water + alcohol 106 % of control

CCCCNc1nc(SC)nc2nc[nH]c12
inactive: [7] 100 % of control | [8] 98 % of control | dose: 200.0 mg/kg/injection, schedule: Q04DX003 (ip), vehicle: saline with Tween-80 96 % of control | [9] 95 % of control

C#CC(=O)OC
inactive: dose: 25.0 mg/kg/injection, schedule: Q04DX002 (ip), vehicle: saline 102 % of control | dose: 50.0 mg/kg/injection, schedule: Q04DX002 (ip), vehicle: saline 98 % of control | dose: 100.0 mg/kg/injection, schedule: Q04DX002 (ip), vehicle: saline 106 % of control

CCOC(=O)C1CSC2(CCCC2)N1 (stereo not drawn)
inactive: dose: 100.0 mg/kg/injection, schedule: Q04DX002 (ip), vehicle: saline with Tween-80 110 % of control | dose: 200.0 mg/kg/injection, schedule: Q04DX002 (ip), vehicle: saline with Tween-80 109 % of control | dose: 400.0 mg/kg/injection, schedule: Q04DX002 (ip), vehicle: saline with Tween-80 100 % of control

Nc1nc(=S)c2ncn(C3OC(COC(=O)c4ccc(Cl)cc4)C(OC(=O)c4ccc(Cl)cc4)C3OC(=O)c3ccc(Cl)cc3)c2[nH]1 (stereo not drawn)
inactive: [5] 122 % of control | dose: 25.0 mg/kg/injection, schedule: Q04DX003 (ip), vehicle: saline with Tween-80 95 % of control | [7] 100 % of control | [8] 104 % of control | dose: 132.0 mg/kg/injection, schedule: Q04DX003 (ip), vehicle: saline with Tween-80 116 % of control | [9] 104 % of control

O=C(NC(=S)c1cccc2ccccc12)Nc1ccc(Cl)c(Cl)c1
inactive: [4] 89 % of control | [5] 87 % of control | [6] 103 % of control

O=C(NCSC1=NCCS1)NCSC1=NCCS1
inactive: dose: 50.0 mg/kg/injection, schedule: Q01DX009 (ip), vehicle: suspension in saline 101 % of control and 103 % of control | dose: 100.0 mg/kg/injection, schedule: Q01DX009 (ip), vehicle: saline 91 % of control | dose: 100.0 mg/kg/injection, schedule: Q01DX009 (ip), vehicle: suspension in saline 100 % of control and 93 % of control | dose: 200.0 mg/kg/injection, schedule: Q01DX009 (ip), vehicle: suspension in saline 100 % of control and 105 % of control | dose: 400.0 mg/kg/injection, schedule: Q01DX009 (ip), vehicle: saline 94 % of control | dose: 400.0 mg/kg/injection, schedule: Q01DX009 (ip), vehicle: suspension in saline 101 % of control and 98 % of control

CCOC(=O)c1cnc2c(cnn2CC)c1NN=C(C)C
inactive: dose: 66.0 mg/kg/injection, schedule: Q04DX003 (ip), vehicle: saline 109 % of control | dose: 100.0 mg/kg/injection, schedule: Q04DX003 (ip), vehicle: saline 109 % of control | dose: 150.0 mg/kg/injection, schedule: Q04DX003 (ip), vehicle: saline 104 % of control

Cc1ccc(/C=C/C(=N/NC(=O)c2ccccc2)C(C)CN(C)C)cc1 (stereo not drawn)
inactive: dose: 60.0 mg/kg/injection, schedule: Q01DX005 (ip), vehicle: saline 99 % of control | dose: 120.0 mg/kg/injection, schedule: Q01DX005 (ip), vehicle: saline 111 % of control

Nc1cc2c3c(cccc3c1O)CC2
inactive: dose: 6.25 mg/kg/injection, schedule: Q01DX005 (ip), vehicle: Klucel (hydroxypropylcellulose) (HPC) 99 % of control | dose: 12.5 mg/kg/injection, schedule: Q01DX005 (ip), vehicle: Klucel (hydroxypropylcellulose) (HPC) 102 % of control | dose: 25.0 mg/kg/injection, schedule: Q01DX005 (ip), vehicle: Klucel (hydroxypropylcellulose) (HPC) 102 % of control

CN1C(=O)N(c2cc(Cl)cc(Cl)c2)C(=N)C1=S
inactive: dose: 60.0 mg/kg/injection, schedule: Q01DX005 (ip), vehicle: Klucel + Tween-80 98 % of control | dose: 120.0 mg/kg/injection, schedule: Q01DX005 (ip), vehicle: Klucel + Tween-80 94 % of control
